Source: patent publication US20240197728A1, “METHODS AND PHARMACEUTICAL COMPOSITIONS FOR TREATING REFRACTORY EPILEPSY” (INSERM (INSTITUT NATIONAL DE LA SANTÉ ET DE LA RECHERCHE …, priority 2021, published 2024)

Tests used:
[1] = test system: KCC2; assay: Immunoprecipitation/immunoblot of KCC2 phosphorylation and expression in hippocampo-cortical slices; type: cell-based, rat
Method: (§1) For all experiments on hippocampal cultures, neurons were pre-incubated for 2 hours with either DMSO, PCPZ or CLP257 in a CO2 incubator set at 37° C. Drugs were added directly to the culture medium. For electrophysiology experiments, neurons were also recorded in presence of these drugs in the bath. For biochemistry experiments on rat hippocampo-cortical slices, slices were incubated with either DMSO (vehicle), CLP257, PCPZ, WNK463 or sodium orthovanadate for 2 hours in interface chambers set at 37° C. For human tissue experiments, slices were pre-incubated with either DMSO, CLP257 or PCPZ for 2 hours in interface chambers set at 37° C. and then also recorded in presence of these compounds.
(§2) 8-weeks old Sprague Dawley male rats were anesthetized by intraperitoneal ketamine/xylazine injection (120/10 mg/kg) and perfused transcardially with ice-cold (0-4° C.), oxygenated solution (O2/CO2 95/5%), containing (in mM): N-methyl-d-glucamine 93, KCl 2.5, NaH2PO4 1.2, NaHCO330, HEPES 20, D-glucose 20, ascorbic acid 5, sodium pyruvate 3, MgSO4 10 and CaCl2) 0.5 (300-310 mOsm, pH7.4). Brains were removed and transverse hippocampo-cortical slices (400 m thick) were prepared in the same solution using a vibratome (HM650V, Microm). Slices were then incubated for 2-hours with DMSO, the KCC2 enhancers (CLP257, PCPZ, WNK43) or sodium orthovanadate in an interface chamber containing artificial cerebrospinal fluid (ACSF) composed of (in mM): D-glucose 10, KCl 3.5, NaHOC3 26, NaH2PO4 1.25, NaCl 126, CaCl2) 1.6 and MgCl2 1.2 (290 mOsm), equilibrated with 5% CO2 in 95% 02. After the treatments, slices were washed with cold PBS, instantaneously frozen with liquid nitrogen and stored at −80° C.
(§3) Slices were mechanically lysed on ice, using a 2 mL Dounce, in a buffer containing (in mM): Tris/HCl, pH 7.5 50, EGTA 1, EDTA 1, sodium orthovanadate 1, sodium-B-glycerophosphate 10, sodium fluoride 50, sodium pyrophosphate 5, sucrose 270, benzamidine 1, phenylmethylsulfonyl fluoride 2, Triton […], (v/v) 2-mercaptoethanol 0.1% and protease inhibitors (Roche). After complete homogenization, samples were centrifuged (16,000×g at 4° C. for 10 min) and the supernatant was collected. Protein quantification was done using Pierce BCA Protein Assay kit (Thermo Scientific) with BSA as standard.
The following phosphorylation site-specific antibodies: anti-KCC3A phospho Thr1048 (0.35 mg/ml, sheep, [S0961C] 1st bleed, Dundee), anti-KCC3A phospho Thr 991 (0.26 mg/ml, sheep, [S959C] 1st bleed, Dundee) were first incubated for 30 min at 4° C. with the corresponding non-phosphorylated peptide (10 mg/ml, Dundee).
Phospho-antibodies or anti-KCC2 antibodies (07-432; Millipore) were then coupled with protein-G-Sepharose (4 Fast Flow; Sigma-Aldrich) at a ratio of […] of antibody per 100 μl of beads, for 2 h at 4° C. without agitation. 1.5 mg of clarified cell lysate was incubated with the antibody-coupled bead suspension, overnight at 4° C. under gentle agitation. The supernatant was collected after centrifugation and beads were washed twice with NaCl solution (0.25M NaCl in 1×PBS) and twice with PBS alone. Bound proteins were eluted with 2×LDS sample buffer (Invitrogen) containing 0.5% (v/v) 2-mercaptoethanol and denaturated at 75° C. for 20 min (IP with phospho-antibodies) or 37° C. for 1 h (IP with anti-KCC2 antibodies) before centrifugation (13,000×g at 4° C. for 15-20 min).
Samples were subjected to electrophoresis on polyacrylamide gradient gels (4-12% bis-tris gels) and transferred to nitrocellulose membranes. Membranes were rinsed with TBS-tween solution (TBST; Invitrogen) and blocked with 5% (w/v) skim milk. The membranes were then immunoblotted in 5% (w/v) skim milk in TBST with a primary antibody against KCC2 (rabbit, 07-432; Millipore; 1:1000), or phosphotyrosine (mouse, clone 4G10, Millipore, 1:1000), and a mouse primary antibody against neuron-specific beta-III tubulin overnight at 4° C. (clone 2G10; T8578; Sigma-Aldrich; 1:1000). […]

[2] = test system: SPAK; assay: Immunoblot of SPAK phosphorylation and expression in hippocampo-cortical slices; type: cell-based, rat; settings: 10 μM WNK463, 2 h; vs DMSO
Method: as §1, §2, §3
Samples were subjected to electrophoresis on polyacrylamide gradient gels (4-12% bis-tris gels) and transferred to nitrocellulose membranes. Membranes were rinsed with TBS-tween solution (TBST; Invitrogen) and blocked with 5% (w/v) skim milk. […] Fluorescence was detected and the relative intensities of immunoblot bands were determined using Odyssey infrared imaging system (LI-COR Bioscience). […]

[3] = test system: OSR1; assay: Immunoblot of OSR1 phosphorylation and expression in hippocampo-cortical slices; type: cell-based, rat; settings: 10 μM WNK463, 2 h; vs DMSO
Method: as §1, §2, §3
Samples were subjected to electrophoresis on polyacrylamide gradient gels (4-12% bis-tris gels) and transferred to nitrocellulose membranes. Membranes were rinsed with TBS-tween solution (TBST; Invitrogen) and blocked with 5% (w/v) skim milk. The membranes were then immunoblotted in 5% (w/v) skim milk in TBST with a primary antibody against KCC2 (rabbit, 07-432; Millipore; 1:1000), or phosphotyrosine (mouse, clone 4G10, Millipore, 1:1000), and a mouse primary antibody against neuron-specific beta-III tubulin overnight at 4° C. (clone 2G10; T8578; Sigma-Aldrich; 1:1000). They were then washed three times with distillated water, three times with TBST-milk solution and incubated for one hour at RT with goat secondary antibodies anti-rabbit IRDye 800 (1:3000; LI-COR), goat anti-mouse IRDye 700 (1:3000; LI-COR) or donkey anti-sheep DyLight 800 (1:3000; Rockland). Membranes were then washed again with TBST three times and one time with TBS. Fluorescence was detected and the relative intensities of immunoblot bands were determined using Odyssey infrared imaging system (LI-COR Bioscience). […]

[4] = test system: spontaneous interictal-like discharges (IIDs) in slices from mTLE patients; assay: Multielectrode array recording of postoperative hippocampal-subicular slices from mTLE patients; type: cell-based, human; settings: 10 μM bumetanide, >10 min application
Method: as §1
Patients or their legal guardians gave informed consent to participate in the study. Patients ([…], 3 males, 4 female, age range: 16-54 years) diagnosed with mesial temporal lobe epilepsy with hippocampal sclerosis underwent multimodal preoperative neurological, neurophyschological and psychiatric evaluations as well as video-electroencephalographic recording, magnetic resonance imaging and fluorodeooxyglugose positron emission tomography. Cortectomies were performed at Sainte-Anne Hospital by neurosurgeons B. Devaux and B. Turak and at Pitié-Salpêtriére Hospital by neurosurgeons S. Clemenceau and B. Mathon. Cortical specimens collected in the operating room were immediately transported in ice-cold (0-4° C.), oxygenated solution (O2/CO2 95/5%), containing (in mM): N-methyl-d-glucamine 93, KCl 2.5, NaH2PO4 1.2, NaHCO3 30, HEPES 20, D-glucose 20, ascorbic acid 5, sodium pyruvate 3, MgSO4 10 and CaCl2 0.5 (300-310 mOsm, pH7.4) and transported within 15 minutes to the laboratory. Transverse hippocampal-subicular slices (400 m thick) were prepared in the same solution using a vibratome (HM650V, Microm). They were maintained for 20-30 minutes at 37° C. and then at room temperature in an interface chamber containing artificial cerebrospinal fluid (ACSF) composed of (in mM): D-glucose 10, KCl 3.5, NaHOC3 26, NaH2PO4 1.25, NaCl 126, CaCl2 1.6 and MgCl2 1.2 (290 mOsm), equilibrated with 5% CO2 in 95% 02.
Multielectrode array recordings were performed using a MEA2100 station (Multi Channel Systems) equipped with a 120-microelectrode array chamber (custom 12×10 layout, 30 μm TiN electrodes spaced 1 mm vertical and 1.5 mm horizontal). Slices were maintained in the recording chamber using a home-made platinum-nylon harp and superfused with pre-warmed (37° C.) oxygenated ACSF at a rate of 6 ml/min. Slices were imaged using a video-microscope table (MEA-VMT1, Multi Channel Systems) in order to register the location of electrodes with respect to the slice. Extracellular signals were acquired at a sampling rate of 10 kHz using Multi Channel Experimenter (Multi Channel Systems) and analyzed offline using homemade software (Matlab, The Mathworks).

[5] = molecular target: T1, NKCC1 (Homo sapiens, UniProt P55011); settings: NEMO trial, neonatal seizures; cited from earlier work
T1 sequence (P55011 1-1212): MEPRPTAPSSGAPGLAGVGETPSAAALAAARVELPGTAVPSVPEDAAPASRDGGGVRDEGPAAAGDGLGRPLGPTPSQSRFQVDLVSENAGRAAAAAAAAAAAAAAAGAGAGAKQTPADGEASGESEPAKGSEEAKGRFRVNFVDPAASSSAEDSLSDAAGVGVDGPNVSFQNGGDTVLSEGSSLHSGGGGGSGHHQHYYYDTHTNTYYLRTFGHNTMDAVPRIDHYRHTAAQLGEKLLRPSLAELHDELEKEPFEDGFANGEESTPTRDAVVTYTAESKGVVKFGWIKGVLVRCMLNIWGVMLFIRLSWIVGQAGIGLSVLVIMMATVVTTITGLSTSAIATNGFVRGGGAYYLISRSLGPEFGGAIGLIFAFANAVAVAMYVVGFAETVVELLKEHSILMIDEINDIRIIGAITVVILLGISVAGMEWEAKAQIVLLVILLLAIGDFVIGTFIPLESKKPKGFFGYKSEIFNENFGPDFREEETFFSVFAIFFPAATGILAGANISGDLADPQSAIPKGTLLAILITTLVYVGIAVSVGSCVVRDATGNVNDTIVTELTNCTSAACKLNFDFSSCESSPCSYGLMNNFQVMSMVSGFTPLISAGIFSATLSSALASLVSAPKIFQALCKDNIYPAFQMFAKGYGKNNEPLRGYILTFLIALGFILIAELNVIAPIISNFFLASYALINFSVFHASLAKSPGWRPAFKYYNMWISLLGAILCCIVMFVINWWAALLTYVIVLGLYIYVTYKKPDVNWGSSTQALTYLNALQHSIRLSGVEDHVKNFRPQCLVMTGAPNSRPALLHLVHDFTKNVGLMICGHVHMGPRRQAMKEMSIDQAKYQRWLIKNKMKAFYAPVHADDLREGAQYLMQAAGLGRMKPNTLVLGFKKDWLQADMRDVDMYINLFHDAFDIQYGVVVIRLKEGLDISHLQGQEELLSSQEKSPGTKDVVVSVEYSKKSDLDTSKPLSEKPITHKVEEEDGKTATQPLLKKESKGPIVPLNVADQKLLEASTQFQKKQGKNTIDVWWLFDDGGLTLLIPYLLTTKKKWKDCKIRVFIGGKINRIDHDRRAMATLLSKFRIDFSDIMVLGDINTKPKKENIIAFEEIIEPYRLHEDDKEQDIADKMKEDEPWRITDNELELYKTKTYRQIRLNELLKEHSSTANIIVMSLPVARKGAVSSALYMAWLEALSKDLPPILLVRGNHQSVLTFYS

CC(C)(C)NC(=O)c1cncn1C1CCN(c2ccc(-c3nnc(C(F)(F)F)o3)cn2)CC1 [WNK463]
change of total KCC2 expression ([1]; 10 μM WNK463, 2 h, slices, vs DMSO): −7.64±13.00% | change of KCC2 phosphorylation at S940 ([1]; 10 μM WNK463, 2 h, vs DMSO): −14.40±4.67% | change of KCC2 phosphorylation at T906 ([1]; 10 μM WNK463, 2 h, vs DMSO): −13.70±12.5% | change of KCC2 phosphorylation at T1007 ([1]; 10 μM WNK463, 2 h, vs DMSO): −78.702±3.27% | change of SPAK phosphorylation (S327) [2]: −84.10±4.57% | change of OSR1 phosphorylation (S325) [3]: −81.00±5.56%

CCCCNc1cc(C(=O)O)cc(S(N)(=O)=O)c1Oc1ccccc1 [bumetanide]
slices in which the amplitude of IIDs was reduced or IIDs abolished [4]: 3 of 4 | hearing loss in surviving patients [5]: 3/11

[Na+].[Na+].[Na+].[O]=[V]([O-])([O-])[O-] [sodium orthovanadate]
change of tyrosine phosphorylation of KCC2 ([1]; sodium orthovanadate 200 μM in H2O (FIG. 4 legend), 2 h): +89.10±45.40%
